Assay results: the supplement of paper PMC5412046
Counter-ions that a name gives are not always drawn.

Columns and labels:
SB.msgc-1 [1] = assay: viability at highest tested concentration (MAXR) relative to DMSO; higher = less cytotoxic; settings: SB.msgc-1 (sporadic gastric cancer)
Method in brief: (§1)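 A pintool delivered 23 nL of compound in DMSO to 1536-well plates holding 500 hereditary or sporadic patient-derived gastric cancer cells in 5 μL medium per well, at 11 concentrations in threefold steps. Following 48 h of exposure, cells were treated with CellTiter-Glo for 30 min at room temperature, and plates were read for luminescence on a ViewLux. The reported measure is viability normalised to DMSO, either at the top concentration or as trapezoidal area under the curve.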

SB.mhdgc-1 [2] = assay: as above; settings: SB.mhdgc-1 (hereditary c.1380delA CDH1 gastric cancer)
Method in brief: as §1

SB.msgc-1 [3] = assay: area under the dose-response curve of % viability (trapezoidal, 11 doses) (% viability x log10 concentration); higher = less cytotoxic; settings: SB.msgc-1 (sporadic gastric cancer)
Method in brief: as §1

SB.mhdgc-1 [4] = assay: as above; settings: SB.mhdgc-1 (hereditary c.1380delA CDH1 gastric cancer)
Method in brief: as §1

SMILES | viability (SB.msgc-1 [1]) | viability (SB.mhdgc-1 [2]) | area under the dose-response curve (SB.msgc-1 [3]) | area under the dose-response curve (SB.mhdgc-1 [4])
C#C[C@]1(O)CC[C@H]2[C@@H]3CCc4cc(OC)ccc4[C@H]3CC[C@@]21C [Mestranol] (top concentration 46.0829 µM) | 32.4% | 65.3% | 486 | 607
CSCC[C@@H](NC(=O)[C@@H](Cc1ccccc1)NC(=O)CNC(=O)CNC(=O)[C@@H](N)Cc1ccc(O)cc1)C(=O)O [Metenkephalin] (top concentration 46.0829 µM) | 120% | 140% | 558 | 556
CN(C)C(=N)NC(=N)N [Metformin HCl] (top concentration 46.0829 µM) | 79.9% | 72.1% | 484 | 502
CN(C)[C@H]\1[C@@H]2[C@@H](O)[C@@H]\3C(=C)C4=C(C(=CC=C4)O)C(=O)C3=C(\O)[C@@]2(O)C(=O)\C(=C1O)C(N)=O [Methacycline hydrochloride] (top concentration 46.0829 µM) | 43.3% | 126% | 501 | 604
COc1ccccc1OCC(O)COC(N)=O (configuration not stated) [Methocarbamol] (top concentration 46.0829 µM) | 104% | 161% | 498 | 533
CN(Cc1cnc2nc(N)nc(N)c2n1)c1ccc(C(=O)N[C@@H](CCC(=O)O)C(=O)O)cc1 [Methotrexate] (top concentration 46.0829 µM) | 37.8% | 61.7% | 348 | 440
COC1=C2OC(=O)\C=C/C2=CC3=C1OC=C3 [Methoxsalen] (top concentration 46.0829 µM) | 105% | 101% | 510 | 476
C[N+]1(C)[C@@H]2C[C@@H](OC(=O)[C@H](CO)c3ccccc3)C[C@H]1[C@@H]1O[C@@H]12.[Br-] [Methscopolamine bromide] (top concentration 46.0829 µM) | 133% | 98.7% | 578 | 496
C[C@](N)(Cc1ccc(O)c(O)c1)C(=O)O [Methyldopa] (top concentration 46.0829 µM) | 105% | 63.7% | 519 | 469
CN(C)c1ccc2nc3ccc(N(C)C)cc3[s+]c2c1 [Methylene blue] (top concentration 46.0829 µM) | 9.08% | 4.3% | 402 | 384
C[C@H]1C[C@H]2[C@@H]3CC[C@](O)(C(=O)CO)[C@@]3(C)C[C@H](O)[C@@H]2[C@@]\4(C)/C=C\C(=O)\C=C14 [Methylprednisolone] (top concentration 46.0829 µM) | 95% | 105% | 495 | 462
CN(C)C1=CC=C(C=C1)C(C2=CC=C(C=C2)N(C)C)=C/3\C=C/C(/C=C3)=[N+](C)C [Methylrosaniline chloride] (top concentration 46.0829 µM) | -1.17% | 0.7% | 379 | 356
C[C@]12CCC(=O)C=C1CC[C@@H]1[C@@H]2CC[C@@]2(C)[C@H]1CC[C@]2(C)O [Methyltestosterone] (top concentration 92.1659 µM) | 60.4% | 73.4% | 515 | 523
Cc1ccccc1N1C(=O)c2cc([S+](N)(=O)[O-])c(Cl)cc2NC1C (configuration not stated) [Metolazone] (top concentration 46.0829 µM) | 101% | 97% | 529 | 571
Cc1ncc([N+](=O)[O-])n1CCO [Metronidazole] (top concentration 46.0829 µM) | 115% | 98.6% | 522 | 483
CN1CCN2c3ccccc3Cc3ccccc3C2C1 (configuration not stated) [Mianserin hydrochloride] (top concentration 46.0829 µM) | 94% | 80.8% | 536 | 508
Clc1ccc(COC(Cn2ccnc2)c2ccc(Cl)cc2Cl)c(Cl)c1 (configuration not stated) [Miconazole nitrate] (top concentration 46.0829 µM) | 46.2% | 49.5% | 494 | 495
CO[C@@H]1[C@H](N(C)C(=O)c2ccccc2)C[C@H]2O[C@]1(C)n1c3ccccc3c3c4c(c5c6ccccc6n2c5c31)C(=O)NC4 [Midostaurin] (top concentration 46.0829 µM) | 56.2% | 33.4% | 490 | 389
CC#C[C@]1(O)CC[C@H]2[C@@H]/3CCC/4=C/C(=O)CCC4=C3[C@H](C[C@]12C)C5=CC=C(C=C5)N(C)C [Mifepristone] (top concentration 46.0829 µM) | 51.8% | 26% | 364 | 306
OCCN1C[C@H](O)[C@@H](O)[C@H](O)[C@H]1CO [Miglitol] (top concentration 46.0829 µM) | 123% | 106% | 560 | 529
CNC(=O)c1nn(C)c2c1C(C)(C)Cc1cnc(Nc3ccc(N4CCN(C)CC4)cc3)nc1-2 [Milciclib] (top concentration 46.0829 µM) | 59.5% | 61.8% | 445 | 454
C\C1=C(\C=C(\C#N)C(=O)N1)C2=CC=NC=C2 [Milrinone] (top concentration 46.0829 µM) | 44.2% | 11.8% | 475 | 544
CN(C)c1ccc(O)c2c1C[C@H]1C[C@H]3[C@H](N(C)C)C(O)=C(C(N)=O)C(=O)[C@@]3(O)C(O)=C1C2=O [Minocycline] (top concentration 46.0829 µM) | 26.2% | 27.4% | 431 | 450
